Read-outs that look alike come from different tables or passages of the source.
Legend:
[1] = target: T1, PDE III (Homo sapiens, UniProt Q14432); assay: Type III PDE inhibition, hydrolysis of [3H]-cyclic AMP; format: biochemical; conditions: Type III PDE isolated from human platelets; 0.2 μM cyclic AMP
T1 construct: Fractions containing PDE III activity are pooled and dialyzed overnight; from tissue; host or cells: human platelets
Description: The Type III PDE is isolated from human platelets using a procedure similar to that previously described by Washer, R. E. et al., Biochem. Pharmacol., 35:787, 1986. Briefly, 1-2 units of platelets are suspended in an equal volume of buffer (20 mM Tris-HCl, pH 7.5, containing 2 mM magnesium acetate, 1 mM dithiothreitol, and 5 mM Na2EDTA). The proteinase inhibitor phenylmethyl-sulfonyl fluoride (PMSF) is also included in this buffer at a final concentration of 200 μM. The suspension is homogenized using a polytron and the homogenate centrifuged at 100,000×g for 60 minutes. This and all subsequent procedures are performed at 0-4° C. The supernatant is then filtered through four layers of gauze and applied to a DEAE-Trisacryl M column, previously equilibrated with buffer B (20 mM Tris-HCl, pH 7.5, containing 1 mM magnesium acetate, 1 mM dithiothreitol and 200 μM PMSF). After application of the sample, the column is washed with several bed volumes of buffer B, after which the different forms of PDE are eluted from the column using two successive linear NaCl gradients (0.05-0.15 M, 300 ml total; 0.15-0.40 M, 200 ml total). Five ml fractions are collected and assayed for cyclic AMP and cyclic GMP PDE activity. Fractions containing PDE III activity are pooled and dialyzed overnight against 4 L of buffer B. The dialyzed PDE III is then concentrated to 10% of the original volume, diluted to 50% with ethylene glycol monoethyl ether and stored at −20° C. PDE III can typically be retained for up to four weeks with little or no loss of activity.
(§1) Enzyme activity is assessed by measuring the hydrolysis of [^3H]-cyclic AMP, as described by Thompson, W. J. et al., Adv. Cyclic Nucleotide Res. 10:69, 1979. The cyclic AMP concentration used in this assay is 0.2 μM, which approximates to the Km value. Protein concentration is adjusted to ensure that no more than 15% of the available substrate is hydrolyzed during the incubation period.
(§2) All test compounds are dissolved in dimethyl sulfoxide (final concentration of 2.5%). This concentration of dimethyl sulfoxide inhibits enzyme activity by approximately 10%.

[2] = system: T2, PDE IV; assay: Type IV PDE inhibition, hydrolysis of [3H]-cyclic AMP; format: biochemical, bovine
T2 construct: PDE IV IC50; other: Type IV PDE isolated from bovine tracheal smooth muscle; rolipram run in the
Source text: The PDE IV inhibitory compounds of the present invention may be examined for their PDE IV inhibitory effects via the techniques set forth in the following examples, wherein the ability of the compounds to inhibit PDE IV isolated from bovine tracheal smooth muscle is set forth.
The Type IV PDE is isolated from bovine tracheal smooth muscle using a procedure similar to that previously described by Silver, P. J. et al., Eur. J. Pharmacol. 150:85,1988.(1). Briefly, smooth muscle from bovine trachea is minced and homogenized using a polytron in 10 volumes of an extraction buffer containing 10 mM Tris-acetate (pH 7.5), 2 mM magnesium chloride, 1 mM dithiothreitol and 2,000 units/ml of aprotinin. This and all subsequent procedures are performed at 0-4° C. The homogenate is sonicated and then centrifuged at 48,000×g for 30 minutes. The resulting supernatant is applied to a DEAE Trisacryl M column previously equilibrated with sodium acetate and dithiothreitol. After applications of the sample, the column is washed with sodium acetate/dithiothreitol, after whlich the different forms of PDE are eluted from the column using a linear Tris-HCl/NaCl gradient. Fractions containing Type IV PDE are collected, dialyzed and concentrated to 14% of the original volume. The concentrated fractions are diluted to 50% with ethylene glycol and stored at −20° C.
as §1, with “approximates” for “approximates to”
as §2

[3] = system: PDE IV; conditions: cited from earlier work
[4] = Type IV PDE isolated from bovine tracheal smooth muscle, 0.2 μM cyclic AMP, read-out: PDE IV IC50

T1 sequence (Q14432 whole entry): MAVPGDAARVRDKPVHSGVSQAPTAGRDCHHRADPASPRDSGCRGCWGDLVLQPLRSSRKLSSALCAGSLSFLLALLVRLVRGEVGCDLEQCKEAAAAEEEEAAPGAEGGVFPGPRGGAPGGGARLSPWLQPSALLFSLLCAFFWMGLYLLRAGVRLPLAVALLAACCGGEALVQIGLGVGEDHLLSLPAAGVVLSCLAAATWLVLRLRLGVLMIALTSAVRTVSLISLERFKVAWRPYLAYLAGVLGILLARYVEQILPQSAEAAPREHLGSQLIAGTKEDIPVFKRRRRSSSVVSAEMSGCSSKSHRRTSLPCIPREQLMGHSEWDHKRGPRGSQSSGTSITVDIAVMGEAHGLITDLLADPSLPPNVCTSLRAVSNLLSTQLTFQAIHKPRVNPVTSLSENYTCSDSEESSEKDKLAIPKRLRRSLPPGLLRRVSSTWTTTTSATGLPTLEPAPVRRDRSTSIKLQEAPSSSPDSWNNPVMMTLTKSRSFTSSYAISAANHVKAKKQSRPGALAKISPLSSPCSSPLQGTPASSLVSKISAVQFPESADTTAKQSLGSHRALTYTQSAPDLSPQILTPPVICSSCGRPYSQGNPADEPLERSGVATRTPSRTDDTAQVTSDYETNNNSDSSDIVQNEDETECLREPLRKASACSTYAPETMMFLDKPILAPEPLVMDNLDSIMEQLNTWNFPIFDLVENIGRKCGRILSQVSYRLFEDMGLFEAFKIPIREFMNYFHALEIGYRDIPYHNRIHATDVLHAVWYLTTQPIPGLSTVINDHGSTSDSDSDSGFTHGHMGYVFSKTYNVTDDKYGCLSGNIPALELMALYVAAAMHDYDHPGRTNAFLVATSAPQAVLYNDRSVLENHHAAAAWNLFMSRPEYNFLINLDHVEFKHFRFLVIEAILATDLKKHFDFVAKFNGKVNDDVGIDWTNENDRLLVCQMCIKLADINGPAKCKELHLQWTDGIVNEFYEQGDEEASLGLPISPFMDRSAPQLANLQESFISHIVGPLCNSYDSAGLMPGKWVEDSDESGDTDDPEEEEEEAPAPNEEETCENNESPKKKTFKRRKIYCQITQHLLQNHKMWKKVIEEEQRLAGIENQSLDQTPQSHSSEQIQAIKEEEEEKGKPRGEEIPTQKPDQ

Row | melting point [°C] | IC50 [1] [µM] | IC50 [2, 4] [µM] | Compound | also measured
1 | 109 to 110 | > 300 | 0.6 | CC(=O)CCc1cc(Cl)cc2nc(-c3ccccc3Cl)oc12 [Example 9, 4-(5-Chloro-2-(2-chlorophenyl)benzoxazol-7-yl)butan-2-one] | –
2 | 66 to 68 | 118 | 0.65 | COc1ccc(Cc2nc3cc(Cl)cc(CC=O)c3o2)cc1OC1CCCC1 [Example 25, 2-(3-Cyclopentyloxy-4-methoxybenzyl)-5-chlorobenzoxazole-7-ethanal] | –
3 | 149 to 151 | 11.4 | 0.37 | COc1ccc(Cc2nc3cc(Cl)cc(CC=NO)c3o2)cc1OC1CCCC1 [Example 26, 2-(3-Cyclopentyloxy-4-methoxybenzyl)-5-chlorobenzoxazole-7-ethanal Oxime] | –
4 | – | 100 | 69.3 | OCCCc1cccc2nc(Cc3ccccc3Cl)oc12 [Example 41, 2-(2-Chlorobenzyl)-7-(3-hydroxy-1-propyl)Benzoxazole] | –
5 | – | 48.6 | 16 | OCCCc1cc(Cl)cc2nc(Cc3cccc(Cl)c3)oc12 [Example 42, 3-[5-Chloro-2-(3-chlorobenzyl)benzoxazol-7-yl]propan-1-ol] | –
6 | – | > 300 | 16.3 | COc1ccc(CCc2nc3cc(Cl)ccc3o2)cc1OC [Example 43, 5-Chloro-2-[2-(3,4-dimethoxyphenyl)ethyl]Benzoxazole] | –
7 | – | > 300 | 19.3 | COc1ccc(-c2nc3cc(Cl)ccc3o2)cc1OC [Example 44, 5-Chloro-2-(3,4-dimethoxyphenyl)Benzoxazole] | –
8 | – | 72.4 | 19.5 | CC(C)(C)c1cc(Cc2nc3ccccc3o2)cc(C(C)(C)C)c1O [Example 45, 2-[4-Hydroxy-3,5-di-t-butyl-benzyl]Benzoxazole] | –
9 | – | 702 | 21.5 | COC(=O)c1cccc2oc(Cc3cc(C(C)(C)C)c(O)c(C(C)(C)C)c3)nc12 [Example 46, 2-[4-Hydroxy-3,5-di-t-butyl-benzyl]-4-carbomethoxybenzoxazole] | –
10 | – | > 300 | 91.5 | CC(C)(C)c1cc(CCc2nc3ccccc3o2)cc(C(C)(C)C)c1O [Example 47, 2-[2-(4-Hydroxy-3,5-di-t-butyl-phenyl)]Ethylbenzoxazole] | –
11 | 181 to 183 | – | – | NC(=O)CCc1cc(Cl)cc2nc(Cc3ccccc3Cl)oc12 [Example 55(a), 5-Chloro-2-(2-chlorobenzyl)-benzoxazole-7-propanamide] | –
12 | 149 to 151 | – | – | Clc1cc(C#Cc2nccs2)c2oc(Cc3ccccc3Cl)nc2c1 [Example 59(a), 5-chloro-2-(2-chlorobenzyl)-7-[2-(2-thiazolyl)ethynyl]-benzoxazole] | –
13 | 72 to 79 | – | – | OCCCCCc1cc(Cl)cc2nc(Cc3ccccc3Cl)oc12 [Example 60(b), 5-chloro-2-(2-chlorobenzyl)-7-(5-hydroxypentyl)-benzoxazole] | –
14 | 95 to 97 | – | – | COc1ccc(Cc2nc3cccc(CCCO)c3o2)cc1OC [Example 61, 2-(3,4-dimethoxybenzyl)-7-(3-hydroxy-propyl)-benzoxazole] | –
15 | – | – | – | COc1ccc(C2CNC(=O)C2)cc1OC1CCCC1 (stereo not shown) [Rolipram, reference compound] | IC50 ([3]; historically considered value, read-out: PDE IV IC50, historical value): 3.5 µM; IC50 ([2]; read-out: concentration which yields 50% inhibition of PDE IV (IC50), value of the description, rolipram run in the same assay): 2.8 µM
16 | – | – | – | Cn1c(=O)c2[nH]cnc2n(C)c1=O [theophylline] | IC50 ([3]; read-out: concentration giving 50% inhibition of PDE IV, stated in the description without a test): ~350 µM

Row | Compound | melting point [°C] | IC50 [1] [µM] | IC50 [2, 4] [µM] | also measured
17 | CC(=O)Oc1c(C(C)(C)C)cc(CCc2nc3cc(Cl)cc(CCc4ccccn4)c3o2)cc1C(C)(C)C [Example 58(b), 2-[2-(4-acetoxy-3,5-di-t-butyl-phenyl)ethyl]-5-chloro-7-[2-(2-pyridyl)ethyl]-benzoxazole] | 134 to 135 | – | – | –

Source: patent publication US6372770B1, “Benzoxazoles” (Euro-Celtique, S.A., priority 1994, dated 2002)
